Test results as given in patent US8093387B2, “Process of making crystalline type II aripiprazole” (Synthon BV, priority 2005, dated 2012).
Read-outs that look alike come from different tables or passages of the source.

How the values were obtained:
[1] = hygroscopicity of solid state forms of aripiprazole; type: physicochemical; settings: crystalline Type II, not milled
[2] = as taught by WO 03/26659 (EP 1330249); cited from earlier work

SMILES | hygroscopicity [1] | hygroscopicity [2]
O=C1CCc2ccc(OCCCCN3CCN(c4cccc(Cl)c4Cl)CC3)cc2N1 [Type II aripiprazole, 7-[4-[4-(2,3-dichlorophenyl)-1-piperazinyl]butoxy]-3,4-dihydrocarbostyril] | not hygroscopic | 
O=C1CCc2ccc(OCCCCN3CCN(c4cccc(Cl)c4Cl)CC3)cc2N1 [Type I aripiprazole, 7-[4-[4-(2,3-dichlorophenyl)-1-piperazinyl]butoxy]-3,4-dihydrocarbostyril] |  | significantly hygroscopic
